Laboratory results as given in US12435080B2, “sGC stimulators” (Tisento Therapeutics Inc., priority 2016, dated 2025).
pEC50: −log10 of the molar value. Where “and” joins values, the source holds several entries; their conditions need not be identical. Equal values may be shown once. Read-outs that look alike come from different tables or passages of the source.

Molecular target: T1, sGC enzyme (Homo sapiens, UniProt Q02108+Q02153)
T1 construct: incorporated into these cells detect cGMP formed by the compounds stimulating the sGC enzyme; host or cells: HEK293 cells stably expressing GloSensor 40F cGMP biosensor
T1 sequence (Q02153 1-619): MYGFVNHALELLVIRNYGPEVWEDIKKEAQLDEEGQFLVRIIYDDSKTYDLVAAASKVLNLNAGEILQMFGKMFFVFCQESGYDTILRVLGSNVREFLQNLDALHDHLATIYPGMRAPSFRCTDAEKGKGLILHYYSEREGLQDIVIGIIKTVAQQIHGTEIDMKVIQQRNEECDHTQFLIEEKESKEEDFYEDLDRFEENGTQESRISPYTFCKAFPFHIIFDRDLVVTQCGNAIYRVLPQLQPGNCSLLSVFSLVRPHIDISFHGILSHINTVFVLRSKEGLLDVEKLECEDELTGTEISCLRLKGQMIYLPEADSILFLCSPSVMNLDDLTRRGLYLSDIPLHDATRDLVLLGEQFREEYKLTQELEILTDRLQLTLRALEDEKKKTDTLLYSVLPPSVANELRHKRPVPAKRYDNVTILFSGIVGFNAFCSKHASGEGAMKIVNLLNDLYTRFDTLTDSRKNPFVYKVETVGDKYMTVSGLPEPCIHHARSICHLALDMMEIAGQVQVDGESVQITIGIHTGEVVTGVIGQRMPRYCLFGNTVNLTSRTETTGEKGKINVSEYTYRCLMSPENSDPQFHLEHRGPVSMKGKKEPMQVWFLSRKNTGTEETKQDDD
T1 sequence (Q02108 1-690): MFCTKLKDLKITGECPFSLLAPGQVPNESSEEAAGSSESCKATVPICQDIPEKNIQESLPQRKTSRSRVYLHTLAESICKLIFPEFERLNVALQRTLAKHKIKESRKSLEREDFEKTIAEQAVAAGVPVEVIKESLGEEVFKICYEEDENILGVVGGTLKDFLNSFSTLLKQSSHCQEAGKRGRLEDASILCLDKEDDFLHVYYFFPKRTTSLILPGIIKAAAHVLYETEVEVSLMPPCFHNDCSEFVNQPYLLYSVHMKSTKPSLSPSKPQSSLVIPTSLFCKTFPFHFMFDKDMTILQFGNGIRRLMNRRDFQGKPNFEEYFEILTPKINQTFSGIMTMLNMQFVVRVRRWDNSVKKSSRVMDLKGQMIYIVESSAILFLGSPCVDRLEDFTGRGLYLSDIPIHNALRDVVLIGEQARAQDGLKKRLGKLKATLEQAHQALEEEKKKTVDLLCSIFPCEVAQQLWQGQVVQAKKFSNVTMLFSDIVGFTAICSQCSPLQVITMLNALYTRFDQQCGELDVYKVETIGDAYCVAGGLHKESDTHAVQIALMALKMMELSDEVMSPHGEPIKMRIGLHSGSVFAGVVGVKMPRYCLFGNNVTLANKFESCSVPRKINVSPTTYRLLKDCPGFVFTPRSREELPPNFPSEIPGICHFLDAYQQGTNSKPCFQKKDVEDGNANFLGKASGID
Experiment: cGMP GloSensor cell-based assay, 384-well format
Conditions: HEK293 cells expressing GloSensor 40F cGMP, 10 μM DETA-NONOate, normalized to 30 μM Compound Y
From the text: Human embryonic kidney cells (HEK293) cells expressing GloSensor™ 40F cGMP (Part No: CS182801, Promega) were used to evaluate the activity of test compounds. The luminescent biosensors (engineered luciferase) that were incorporated into these cells detect cGMP formed by the compounds stimulating the sGC enzyme and emit luminescence.
cGMP GloSensor cells were maintained in Dulbecco's Modification of Eagle's Medium (DMEM) supplemented with fetal bovine serum (FBS, 10% final) and hygromycine (200 ug/ml). […] Cells were incubated overnight at 37° C. in a humidified chamber with 5% CO2. The next day, medium was removed and cells were replaced with 40 ul/well of GloSensor™, 2 mM (Promega Cat No E1291). Cells were treated for 90 minutes at 25° C. to allow the substrate to equilibrate in the cells. […] For endpoint SAR screening, data were collected after 55 min incubation at room temperature.
Data were fit using a 4-parameter fit (log(agonist) vs. response—variable slope) using GraphPad Prism Software v.5. n=2 for all compounds. […] Compounds failing to elicit a minimum response of 50% are reported as >30 μM or ND.

[1] = compounds in Table IA, read-out: Glo-sensor AbsEC50

pEC50 [1]	pEC50 (compounds in Table IB, read-out: Glo-sensor Abs EC50)	Compound
> 7.00		Fc1ccccc1Cn1nc(-c2nc(CC(F)(F)F)n[nH]2)c2cccnc21 [Compound I-26, 1-(2-Fluorobenzyl)-3-(3-(2,2,2-trifluoroethyl)-1H-1,2,4-triazol-5-yl)-1H-pyrazolo[3,4-b]pyridine]
6.00 to 7.00		Fc1ccccc1Cn1nc(-c2nc(C3(C(F)(F)F)CC3)n[nH]2)c2cccnc21 [Compound I-59, 1-(2-fluorobenzyl)-3-(3-(1-(trifluoromethyl)cyclopropyl)-1H-1,2,4-triazol-5-yl)-1H-pyrazolo[3,4-b]pyridine]
6.00 to 7.00		Fc1ccccc1Cn1nc(-c2nc(N3CCOCC3)n[nH]2)c2cccnc21 [Compound I-57]
6.00 to 7.00		O=C1CCC(=O)N1Cc1n[nH]c(-c2nn(Cc3ccccc3F)c3ncccc23)n1 [Compound I-125, 1-((5-(1-(2-fluorobenzyl)-1H-pyrazolo[3,4-b]pyridin-3-yl)-1H-1,2,4-triazol-3-yl)methyl)pyrrolidine-2,5-dione]
6.00 to 7.00		Fc1ccccc1Cn1nc(-c2nc(C3CC(F)(F)C3)n[nH]2)c2cccnc21 [Compound I-77, 3-(3-(3,3-Difluorocyclobutyl)-1H-1,2,4-triazol-5-yl)-1-(2-fluorobenzyl)-1H-pyrazolo[3,4-b]pyridine]
	> 7.00	Fc1cccn2c(-c3nc(C(F)(F)F)n[nH]3)nc(Cc3cncnc3)c12 [Compound I-15, 8-Fluoro-1-(pyrimidin-5-ylmethyl)-3-(3-(trifluoromethyl)-1H-1,2,4-triazol-5-yl)imidazo[1,5-a]pyridine]
< 6.00		FC(F)c1n[nH]c(-n2nc(Cc3ccccc3)c3ncccc32)n1 [Compound I-129]
6.00 to 7.00		C=C(C)c1n[nH]c(-c2nn(Cc3ccccc3F)c3ncccc23)n1 [Compound I-55]
> 7.00		Fc1cccc(F)c1Cn1nc(-c2nc(C(F)(F)F)n[nH]2)c2cccnc21 [Compound I-42]
> 7.00		OC1(c2n[nH]c(-c3nn(Cc4ccccc4F)c4ncccc34)n2)CC1 [Compound I-104, 1-(5-(1-(2-Fluorobenzyl)-1H-pyrazolo[3,4-b]pyridin-3-yl)-1H-1,2,4-triazol-3-yl)cyclopropanol]
6.00 to 7.00		CC(=O)NCc1n[nH]c(-c2nn(Cc3ccccc3F)c3ncccc23)n1 [Compound I-124, N-((5-(1-(2-fluorobenzyl)-1H-pyrazolo[3,4-b]pyridin-3-yl)-1H-1,2,4-triazol-3-yl)methyl)acetamide]
> 7.00		Fc1ccccc1Cn1nc(-c2nc(Cl)n[nH]2)c2cccnc21 [Compound I-47, 3-(3-Chloro-1H-1,2,4-triazol-5-yl)-1-(2-fluorobenzyl)-1H-pyrazolo[3,4-b]pyridine]
> 7.00		Cc1ccc(Cn2nc(-c3nc(C(F)(F)F)n[nH]3)c3cccnc32)cc1 [Compound I-54, 1-(4-Methylbenzyl)-3-(3-(trifluoromethyl)-1H-1,2,4-triazol-5-yl)-1H-pyrazolo[3,4-b]pyridine]
6.00 to 7.00		Fc1ccccc1Cn1nc(-c2nc(C(F)(F)F)n[nH]2)c2ccnnc21 [Compound I-100, 1-(2-Fluorobenzyl)-3-(3-(trifluoromethyl)-1H-1,2,4-triazol-5-yl)-1H-pyrazolo[3,4-c]pyridazine]
6.00 to 7.00		NCc1n[nH]c(-c2nn(Cc3ccccc3F)c3ncccc23)n1 [Compound I-115, (5-(1-(2-fluorobenzyl)-1H-pyrazolo[3,4-b]pyridin-3-yl)-1H-1,2,4-triazol-3-yl)methanamine]
6.00 to 7.00		FCCN1CC(c2n[nH]c(-c3nn(Cc4ccccc4F)c4ncccc34)n2)C1 [Compound I-97, 1-(2-Fluorobenzyl)-3-(3-(1-(2-fluoroethyl)azetidin-3-yl)-1H-1,2,4-triazol-5-yl)-1H-pyrazolo[3,4-b]pyridine]
> 7.00		CC(C)(C)c1n[nH]c(-c2nn(Cc3ccccc3F)c3ncccc23)n1 [Compound I-37, 3-(3-(tert-Butyl)-1H-1,2,4-triazol-5-yl)-1-(2-fluorobenzyl)-1H-pyrazolo[3,4-b]pyridine]
6.00 to 7.00		FC(F)(F)c1n[nH]c(-n2nc(Cc3ccccc3)c3ncccc32)n1 [Compound I-128, 3-Benzyl-1-(3-(trifluoromethyl)-1H-1,2,4-triazol-5-yl)-1H-pyrazolo[4,3-b]pyridine]
6.00 to 7.00		COc1n[nH]c(-c2nn(Cc3ccccc3F)c3ncccc23)n1 [Compound I-82, 1-(2-fluorobenzyl)-3-(3-methoxy-1H-1,2,4-triazol-5-yl)-1H-pyrazolo[3,4-b]pyridine]
< 6.00 and > 7.00		Fc1ccccc1Cn1nc(-c2nc(C3CNC3)n[nH]2)c2cccnc21 [Compound I-73, 3-(3-(azetidin-3-yl)-1H-1,2,4-triazol-5-yl)-1-(2-fluorobenzyl)-1H-pyrazolo[3,4-b]pyridine]
6.00 to 7.00		Fc1cc(F)cc(Cc2nn(-c3nc(C(F)F)n[nH]3)c3cccnc23)c1 [Compound I-123, 3-(3,5-Difluorobenzyl)-1-(3-(difluoromethyl)-1H-1,2,4-triazol-5-yl)-1H-pyrazolo[4,3-b]pyridine]
> 7.00		Cc1ncc(Cn2nc(-c3nc(C(F)(F)F)n[nH]3)c3ccc(Cl)cc32)cn1 [Compound I-22, 6-Chloro-1-((2-methylpyrimidin-5-yl)methyl)-3-(3-(trifluoromethyl)-1H-1,2,4-triazol-5-yl)-1H-indazole]
> 7.00		Cc1ncc(Cn2nc(-c3nc(C(F)(F)F)n[nH]3)c3ccc(F)cc32)cn1 [Compound I-61, 6-Fluoro-1-((2-methylpyrimidin-5-yl)methyl)-3-(3-(trifluoromethyl)-1H-1,2,4-triazol-5-yl)-1H-indazole]
> 7.00		Cc1ccc2c(-c3nc(C(F)(F)F)n[nH]3)nn(Cc3ccccc3F)c2n1 [Compound I-50, 1-(2-Fluorobenzyl)-6-methyl-3-(3-(trifluoromethyl)-1H-1,2,4-triazol-5-yl)-1H-pyrazolo[3,4-b]pyridine]
6.00 to 7.00		Fc1ccccc1Cn1nc(-c2nc(Cn3ccnc3)n[nH]2)c2cccnc21 [Compound I-99, 3-(3-((1H-imidazol-1-yl)methyl)-1H-1,2,4-triazol-5-yl)-1-(2-fluorobenzyl)-1H-pyrazolo[3,4-b]pyridine]
6.00 to 7.00		Fc1cccnc1Cn1nc(-c2nc(C(F)(F)F)n[nH]2)c2cccnc21 [Compound I-13, 1-((3-Fluoropyridin-2-yl)methyl)-3-(3-(trifluoromethyl)-1H-1,2,4-triazol-5-yl)-1H-pyrazolo[3,4-b]pyridine]
< 6.00		Cc1ncc(Cn2nc(-c3nc(C(F)(F)F)n[nH]3)c3ncccc32)cn1 [Compound I-38]
> 7.00		Cc1ccc2c(-c3nc(C(F)(F)F)n[nH]3)nn(Cc3cccc(F)c3F)c2n1 [Compound I-85, 1-(2,3-Difluorobenzyl)-6-methyl-3-(3-(trifluoromethyl)-1H-1,2,4-triazol-5-yl)-1H-pyrazolo[3,4-b]pyridine]
< 6.00		FC(F)(F)CCn1nc(-c2nc(C(F)(F)F)n[nH]2)c2cccnc21 [Compound I-7, 3-(3-(Trifluoromethyl)-1H-1,2,4-triazol-5-yl)-1-(3,3,3-trifluoropropyl)-1H-pyrazolo[3,4-b]pyridine]
